Data reported in patent publication CN115504972A, “异恶唑类衍生物、其制备方法及其作为药物的用途” (Guangdong Pharmaceutical University, priority 2021, dated 2022).

Legend:
[1] = test system: non-alcoholic fatty liver model mice (非酒精性脂肪肝模型小鼠); test: Improvement of non-alcoholic fatty liver in NASH model mice (Western diet + CCl4), HE staining of liver; format: in vivo, C57BL/6 mouse; settings: 10 mg/kg, gavage, once daily, 4 weeks; compared with obeticholic acid 20 mg/kg
FXR receptor (FXR受体) = target: T1, FXR receptor (FXR受体) (Homo sapiens, UniProt Q96RI1); settings: cited from earlier work
T1 sequence (Q96RI1 1-486): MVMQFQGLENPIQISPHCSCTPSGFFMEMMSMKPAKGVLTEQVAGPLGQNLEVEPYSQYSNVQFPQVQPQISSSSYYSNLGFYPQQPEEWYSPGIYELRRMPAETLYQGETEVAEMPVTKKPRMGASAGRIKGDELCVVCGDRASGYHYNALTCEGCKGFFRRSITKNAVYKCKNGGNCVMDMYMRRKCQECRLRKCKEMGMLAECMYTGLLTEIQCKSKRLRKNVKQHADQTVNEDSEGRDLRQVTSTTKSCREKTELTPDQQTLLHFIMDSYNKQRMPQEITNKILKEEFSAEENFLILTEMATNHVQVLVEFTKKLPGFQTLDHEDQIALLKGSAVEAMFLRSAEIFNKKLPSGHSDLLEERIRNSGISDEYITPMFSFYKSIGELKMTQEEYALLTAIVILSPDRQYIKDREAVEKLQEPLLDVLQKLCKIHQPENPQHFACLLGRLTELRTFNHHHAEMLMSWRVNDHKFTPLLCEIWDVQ

[2] = test system: non-alcoholic fatty liver disease (非酒精性脂肪性肝病(NAFLD)); settings: phase IIa clinical study; cited from earlier work
[3] = test system: non-alcoholic hepatitis (非酒精性肝炎(NASH)); settings: phase IIb study, 72 weeks of treatment; cited from earlier work
[4] = phase III clinical study; cited from earlier work
[5] = clinical studies; cited from earlier work

Row | Compound | ballooning [1] | degree of hepatic steatosis [1] | improvement of non-alcoholic fatty liver [1] | inflammatory infiltration [1] | FXR receptor agonist activity compared with the endogenous ligand CDCA (FXR receptor (FXR受体)) | insulin sensitivity [2] | other metabolic effects [2] | histopathology of NASH [3] | liver fibrosis, histological features of steatohepatitis and liver biochemical indicators [4] | side effects [5]
1 | CC(C)c1onc(-c2ccccc2OC(F)(F)F)c1CN1CCC(COc2ccc(C(=O)O)cc2)CC1 [I-9, 4-(1-(5-异丙基-3-(2-三氟甲氧基苯基)异恶唑-4-甲基)哌啶-4-甲氧基)苯甲酸] | 得到更明显的改善 | 得到更明显的改善 | 明显优于奥贝胆酸 | 得到更明显的改善 | – | – | – | – | – | –
2 | CC[C@H]1[C@@H](O)[C@@H]2[C@H](CC[C@]3(C)[C@@H]([C@H](C)CCC(=O)O)CC[C@@H]23)[C@@]2(C)CC[C@@H](O)C[C@@H]12 [奥贝胆酸] | – | – | – | – | 比内源性配体CDCA活性更高 | 有显著改善 | 有益作用 | 对非酒精性肝炎(NASH)的组织病理学的改进也有益 | 可以改善肝纤维化、脂肪性肝炎的组织学特征以及肝脏的生化指标 | 严重的瘙痒、肝毒性、心血管风险等副作用
